Assay results published in the NIST ThermoML archive (doi:10.1016/j.jct.2007.04.004).
Numbers after ± are expanded uncertainties.

Columns and labels:
[1] = Liquid; for mass density: 101.33 kPa, Pycnometric method; for Normal boiling temperature: Ebulliometric method (Recirculating still)
[2] = excess molar enthalpy (molar enthalpy of mixing); xn = mol fraction of the nth substance listed; conditions: 298.15 K, 101 kPa, Liquid

In the case of `O=C1CCCCC1` [cyclohexanone], the mass density ([1]; 303.15 K) is reported as 937.58 ± 5 kg/m3, the “vapor or sublimation pressure” value ([1]; 426.3 K) is reported as 95.3 ± 5 kPa and the Normal boiling temperature [1] is reported as 155.69 ± 0.41 °C.

For `CCC(C)=O` [butanone] + C[S+](C)[O-], the excess molar enthalpy ([2]; x1 = 0.054) was 0.0179 ± 0.00167 kcal/mol, the excess molar enthalpy ([2]; x1 = 0.1094) was 0.0357 ± 0.00239 kcal/mol and the excess molar enthalpy ([2]; x1 = 0.1725) was 0.0509 ± 0.00311 kcal/mol. It also gave an excess molar enthalpy ([2]; x1 = 0.2385) of 0.0621 ± 0.00335 kcal/mol, an excess molar enthalpy ([2]; x1 = 0.2956) of 0.0729 ± 0.00382 kcal/mol and an excess molar enthalpy ([2]; x1 = 0.3507) of 0.0832 ± 0.0043 kcal/mol. The excess molar enthalpy ([2]; x1 = 0.4007) was 0.0891 ± 0.00454 kcal/mol, the excess molar enthalpy ([2]; x1 = 0.4448) was 0.0936 ± 0.00478 kcal/mol and the excess molar enthalpy ([2]; x1 = 0.4881) was 0.0944 ± 0.00478 kcal/mol. It also gave an excess molar enthalpy ([2]; x1 = 0.5787) of 0.0966 ± 0.00478 kcal/mol, an excess molar enthalpy ([2]; x1 = 0.6433) of 0.0864 ± 0.0043 kcal/mol and an excess molar enthalpy ([2]; x1 = 0.7077) of 0.0737 ± 0.00382 kcal/mol. It also gave an excess molar enthalpy ([2]; x1 = 0.7797) of 0.0581 ± 0.00335 kcal/mol, an excess molar enthalpy ([2]; x1 = 0.856) of 0.0356 ± 0.00239 kcal/mol and an excess molar enthalpy ([2]; x1 = 0.9297) of 0.0135 ± 0.00151 kcal/mol.

For `CCC(C)=O` [butanone], the mass density ([1]; 298.15 K) was 799.71 ± 3.7 kg/m3, the “vapor or sublimation pressure” value ([1]; 350.9 K) was 95.3 ± 5 kPa and the Normal boiling temperature [1] was 79.54 ± 0.41 °C.

`O=C1CCCCC1` [cyclohexanone] + C[S+](C)[O-] showed an excess molar enthalpy ([2]; x1 = 0.0386) of 0.0249 ± 0.00196 kcal/mol, an excess molar enthalpy ([2]; x1 = 0.0873) of 0.0566 ± 0.00311 kcal/mol and an excess molar enthalpy ([2]; x1 = 0.1405) of 0.0601 ± 0.0239 kcal/mol. It also gave an excess molar enthalpy ([2]; x1 = 0.1917) of 0.105 ± 0.00526 kcal/mol, an excess molar enthalpy ([2]; x1 = 0.2431) of 0.121 ± 0.00574 kcal/mol and an excess molar enthalpy ([2]; x1 = 0.3037) of 0.135 ± 0.00645 kcal/mol. It also gave an excess molar enthalpy ([2]; x1 = 0.3596) of 0.152 ± 0.00693 kcal/mol, an excess molar enthalpy ([2]; x1 = 0.4115) of 0.161 ± 0.00741 kcal/mol and an excess molar enthalpy ([2]; x1 = 0.5044) of 0.165 ± 0.00765 kcal/mol. It also gave an excess molar enthalpy ([2]; x1 = 0.5686) of 0.158 ± 0.00717 kcal/mol, an excess molar enthalpy ([2]; x1 = 0.6399) of 0.147 ± 0.00693 kcal/mol and an excess molar enthalpy ([2]; x1 = 0.7238) of 0.126 ± 0.00598 kcal/mol. For the same compound, the excess molar enthalpy ([2]; x1 = 0.8119) was 0.0913 ± 0.00454 kcal/mol and the excess molar enthalpy ([2]; x1 = 0.9101) was 0.048 ± 0.00287 kcal/mol.

In the case of `CC(=O)CC(C)C` [4-methylpentan-2-one] + C[S+](C)[O-], the excess molar enthalpy ([2]; x1 = 0.0387) is reported as 0.0314 ± 0.00222 kcal/mol, the excess molar enthalpy ([2]; x1 = 0.0839) is reported as 0.0636 ± 0.00359 kcal/mol and the excess molar enthalpy ([2]; x1 = 0.1332) is reported as 0.0937 ± 0.00478 kcal/mol. For the same compound, the excess molar enthalpy ([2]; x1 = 0.1874) was 0.113 ± 0.0055 kcal/mol, the excess molar enthalpy ([2]; x1 = 0.2391) was 0.131 ± 0.00621 kcal/mol and the excess molar enthalpy ([2]; x1 = 0.2901) was 0.143 ± 0.00669 kcal/mol. For the same compound, the excess molar enthalpy ([2]; x1 = 0.3377) was 0.158 ± 0.00717 kcal/mol, the excess molar enthalpy ([2]; x1 = 0.3804) was 0.167 ± 0.00765 kcal/mol and the excess molar enthalpy ([2]; x1 = 0.4029) was 0.172 ± 0.00789 kcal/mol. It also gave an excess molar enthalpy ([2]; x1 = 0.4617) of 0.17 ± 0.00789 kcal/mol, an excess molar enthalpy ([2]; x1 = 0.5304) of 0.164 ± 0.00741 kcal/mol and an excess molar enthalpy ([2]; x1 = 0.6116) of 0.144 ± 0.00669 kcal/mol. It also gave an excess molar enthalpy ([2]; x1 = 0.6917) of 0.114 ± 0.0055 kcal/mol, an excess molar enthalpy ([2]; x1 = 0.7918) of 0.0687 ± 0.00359 kcal/mol and an excess molar enthalpy ([2]; x1 = 0.837) of 0.0539 ± 0.00311 kcal/mol. The excess molar enthalpy ([2]; x1 = 0.9237) was 0.0255 ± 0.00198 kcal/mol.

In the case of `CC(=O)CC(C)C` [4-methylpentan-2-one], the mass density ([1]; 298.15 K) is reported as 796.33 ± 3.6 kg/m3, the “vapor or sublimation pressure” value ([1]; 386.7 K) is reported as 95.3 ± 5 kPa and the Normal boiling temperature [1] is reported as 117.39 ± 0.41 °C.

With `C[S+](C)[O-]` [dimethyl sulfoxide] the mass density ([1]; 298.15 K) was 1095.37 ± 6.8 kg/m3, the “vapor or sublimation pressure” value ([1]; 461 K) was 95.3 ± 5 kPa and the Normal boiling temperature [1] was 189.04 ± 0.41 °C.
